Experimental findings from ChEMBL document CHEMBL1201862, “PubChem BioAssay data set” (2004) are described below.

Some test systems named below: HCT-15; SK-MEL-2; RPMI-8226; NCI-H522; OVCAR-3; Malme-3M; M14; UACC-257; LOX IMVI; HL-60; CCRF-CEM; 786-0; SF-539; SF-295; HOP-62; SK-MEL-5; IGROV-1; MCF7; MDA-MB-435.
Common to all, as to assay: NCI-60 cell line screen, 48 h

Structures are written as SMILES.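 Cells were grown in 96-well plates and exposed to each compound for 48 hours at five concentrations; endpoints were interpolated linearly between bracketing concentrations, or set to the highest concentration if not reached. Abbreviation: GI50, concentration required for 50% inhibition of growth.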 Activity calls are given as the source filed them. Cut-off read from the data, not from the text of the source: active = GI50 up to about 1.1 µM and inactive = higher. Bounds are passed on as bounds.

With `N=C(N)NCCCC(Nc1c2ccccc2nc2ccccc12)C(=O)O` (stereo not drawn), the GI50 is above 100 µM with HCT-15; > 100 µM (inactive) in the experiment on SK-MEL-2; 33.1 µM (inactive) in the experiment on RPMI-8226; 44 µM (inactive) in the experiment on NCI-H522; 82.6 µM (inactive) in the experiment with OVCAR-3; > 100 µM (inactive) in the experiment with Malme-3M. Moreover, the GI50 in the experiment on M14 is > 100 µM (inactive); in the experiment on UACC-257 it was > 100 µM (inactive); with LOX IMVI, > 100 µM (inactive); in the experiment on HL-60, 26.5 µM (inactive); in the experiment with CCRF-CEM, > 100 µM (inactive); in the experiment on 786-0, > 100 µM (inactive). Further, the GI50 in the experiment on SF-539 and in the experiment on SF-295 was > 100 µM (inactive) in each case.
For `COc1ccc(-c2cc(=O)c3c(OC)cccc3o2)c(OC)c1OC`, the GI50 was above 100 µM with HCT-15; > 100 µM (inactive) in the experiment on SK-MEL-2; 80.5 µM (inactive) in the experiment on RPMI-8226; > 100 µM (inactive) in the experiment with NCI-H522; > 100 µM (inactive) in the experiment with OVCAR-3; > 100 µM (inactive) in the experiment on Malme-3M. For the same compound, the GI50 is > 100 µM (inactive) in the experiment with M14; > 100 µM (inactive) in the experiment on UACC-257; > 100 µM (inactive) in the experiment with HOP-62; 87.7 µM (inactive) in the experiment on SK-MEL-5; > 100 µM (inactive) in the experiment on LOX IMVI; 63.1 µM (inactive) in the experiment on HL-60. The GI50 in the experiment with CCRF-CEM, in the experiment on 786-0, in the experiment on SF-539, in the experiment on SF-295 and with IGROV-1 was > 100 µM (inactive) in each case.
For the compound `Cc1c(Cl)c(=O)oc2cc(OCC(O)COC(C)C)ccc12` (stereo not drawn), the GI50 in the experiment on SK-MEL-2 is 30.3 µM (inactive); in the experiment with RPMI-8226 it was 50.6 µM (inactive); in the experiment with NCI-H522 it was > 100 µM (inactive); in the experiment with OVCAR-3, 97.5 µM (inactive); with Malme-3M, 20 µM (inactive); in the experiment on M14, 32.2 µM (inactive). The GI50 is 74 µM (inactive) with UACC-257; 38.7 µM (inactive) in the experiment on HOP-62; 19.8 µM (inactive) with SK-MEL-5; 35 µM (inactive) in the experiment on LOX IMVI; 22.1 µM (inactive) with HL-60; 34.3 µM (inactive) with CCRF-CEM. Moreover, the GI50 in the experiment on 786-0 was 39.9 µM (inactive); in the experiment with MCF7, 22 µM (inactive); with MDA-MB-435 it was 60.3 µM (inactive); with SF-295 it was 64.4 µM (inactive); with IGROV-1, 65.8 µM (inactive).
For `CC(C)CC(=O)NS(=O)(=O)c1ccccc1`, the GI50 in the experiment on HCT-15 is above 100 µM; in the experiment on SK-MEL-2 it was > 100 µM (inactive); in the experiment on RPMI-8226, > 100 µM (inactive); in the experiment on NCI-H522, > 100 µM (inactive); in the experiment on OVCAR-3, > 100 µM (inactive); in the experiment on Malme-3M it was > 100 µM (inactive). The GI50 in the experiment with M14, with UACC-257, in the experiment on HOP-62, with LOX IMVI, in the experiment with HL-60 and in the experiment on CCRF-CEM was > 100 µM (inactive) in each case. Besides, the GI50 in the experiment on 786-0, in the experiment with SF-539, with SF-295 and in the experiment with IGROV-1 was > 100 µM (inactive) each time.
As for `CC(C)(C)C1=CC(=N/N=c2\scc(-c3ccccc3)n2-c2ccccc2)C=C(C(C)(C)C)C1=O`, the GI50 in the experiment on HCT-15 is above 100 µM; with SK-MEL-2, > 100 µM (inactive); in the experiment with RPMI-8226, > 100 µM (inactive); in the experiment on NCI-H522, > 100 µM (inactive); with OVCAR-3 it was > 100 µM (inactive); in the experiment on Malme-3M, > 100 µM (inactive). For the same compound, the GI50 in the experiment with M14, in the experiment on UACC-257, in the experiment with HOP-62, in the experiment on SK-MEL-5, in the experiment on LOX IMVI and with HL-60 was > 100 µM (inactive) throughout. Moreover, the GI50 in the experiment on CCRF-CEM, in the experiment with 786-0, in the experiment with SF-539, with SF-295 and in the experiment with IGROV-1 was > 100 µM (inactive) each time.
Consider `C=C1c2[nH]c3c([N+](=O)[O-])c(OC)ccc3c2CCN1C(C)=O`, for which the GI50 was above 100 µM in the experiment with HCT-15; > 100 µM (inactive) in the experiment on SK-MEL-2; > 100 µM (inactive) with RPMI-8226; > 100 µM (inactive) in the experiment with NCI-H522; > 100 µM (inactive) in the experiment on OVCAR-3; > 100 µM (inactive) in the experiment with M14. Moreover, the GI50 in the experiment on UACC-257, in the experiment on HOP-62, in the experiment with LOX IMVI, in the experiment with HL-60, in the experiment on CCRF-CEM and with 786-0 was > 100 µM (inactive) throughout. Further, the GI50 in the experiment on SF-539, in the experiment with SF-295 and in the experiment with IGROV-1 was > 100 µM (inactive) in each case.
Turning to `Cc1ccc(N(C(=O)CC(=O)N2N=C(c3ccccc3)C(/N=N/c3ccc([N+](=O)[O-])cc3)C2=O)C(=O)c2ccc(Cl)cc2)cc1` (stereo not drawn), the GI50 is 13.2 µM in the experiment on HCT-15; > 38.8 µM (inactive) in the experiment on SK-MEL-2; 21.1 µM (inactive) in the experiment with RPMI-8226; 3.65 µM (inactive) in the experiment with NCI-H522; 24 µM (inactive) with OVCAR-3; > 100 µM (inactive) in the experiment with Malme-3M. For the same compound, the GI50 was 5.69 µM (inactive) in the experiment on M14; 30.9 µM (inactive) with UACC-257; 10.3 µM (inactive) with HOP-62; 16.9 µM (inactive) in the experiment on SK-MEL-5; 3.7 µM (inactive) in the experiment with LOX IMVI; 19.2 µM (inactive) in the experiment on HL-60. For the same compound, the GI50 is 5.27 µM (inactive) in the experiment on CCRF-CEM; 14.4 µM (inactive) in the experiment with 786-0; 19.8 µM (inactive) with SF-539; 9.2 µM (inactive) in the experiment with SF-295; 16.8 µM (inactive) with IGROV-1.
As to `CCCCc1c2c(nc3c1CCc1cc4cc5c(nc4nc1-3)-c1nc3c(c(CCCC)c1CC5)CCCC3)CCCC2`, the GI50 was 33.2 µM in the experiment with HCT-15; 27 µM (inactive) with RPMI-8226; 43.7 µM (inactive) in the experiment on NCI-H522; > 10 µM (inactive) in the experiment with OVCAR-3; 38.6 µM (inactive) in the experiment on Malme-3M; 53.1 µM (inactive) with M14. In addition, the GI50 with UACC-257 is 59.8 µM (inactive); in the experiment with HOP-62 it was 37.9 µM (inactive); with LOX IMVI it was 41.9 µM (inactive); in the experiment on HL-60, 42.1 µM (inactive); with CCRF-CEM, 31.7 µM (inactive); in the experiment with 786-0 it was 23.6 µM (inactive). Moreover, the GI50 was 16.4 µM (inactive) in the experiment on SF-539, 15.7 µM (inactive) with SF-295 and 38.5 µM (inactive) in the experiment on IGROV-1.
Regarding `CCOc1cc[n+]([C-](C#N)C#N)cc1`, the GI50 in the experiment with HCT-15 is above 100 µM; with RPMI-8226, > 100 µM (inactive); with NCI-H522 it was > 100 µM (inactive); in the experiment on OVCAR-3 it was > 100 µM (inactive); with Malme-3M it was > 100 µM (inactive); in the experiment on M14, > 100 µM (inactive). For the same compound, the GI50 in the experiment with UACC-257, with HOP-62, in the experiment with SK-MEL-5, in the experiment on LOX IMVI, in the experiment on HL-60 and with CCRF-CEM was > 100 µM (inactive) each time. Besides, the GI50 in the experiment on 786-0, with SF-539, with SF-295 and with IGROV-1 was > 100 µM (inactive) each time.
For `COc1ccc(C2=NN(C(=O)COc3ccc(Cl)cc3)C(O)(c3ccc(Cl)cc3)C2)cc1` (stereo not drawn), the GI50 was above 100 µM with HCT-15; > 100 µM (inactive) in the experiment with SK-MEL-2; > 100 µM (inactive) with RPMI-8226; > 100 µM (inactive) with NCI-H522; > 100 µM (inactive) with OVCAR-3; > 100 µM (inactive) in the experiment on Malme-3M. Further, the GI50 with M14, in the experiment on UACC-257, in the experiment on HOP-62, in the experiment with LOX IMVI, with HL-60 and with 786-0 was > 100 µM (inactive) throughout. Moreover, the GI50 in the experiment with SF-539, with SF-295 and with IGROV-1 was > 100 µM (inactive) in each case.
Regarding `O=C(NNc1ccccc1)/C(=C/c1ccc2c(c1)OCO2)NC(=O)c1ccccc1`, the GI50 was above 100 µM with HCT-15; > 100 µM (inactive) in the experiment with SK-MEL-2; 52.2 µM (inactive) with RPMI-8226; 33.3 µM (inactive) in the experiment with NCI-H522; 69 µM (inactive) in the experiment with OVCAR-3; > 100 µM (inactive) with Malme-3M. For the same compound, the GI50 in the experiment on M14 was > 100 µM (inactive); in the experiment with UACC-257, > 100 µM (inactive); with HOP-62, > 100 µM (inactive); in the experiment on SK-MEL-5 it was > 100 µM (inactive); in the experiment with LOX IMVI, 41.6 µM (inactive); in the experiment with HL-60, > 100 µM (inactive). The GI50 was 31 µM (inactive) in the experiment with CCRF-CEM; > 100 µM (inactive) in the experiment with 786-0; > 100 µM (inactive) in the experiment on SF-539; > 100 µM (inactive) in the experiment with SF-295; > 100 µM (inactive) in the experiment on IGROV-1.
For `O=C1Cc2c([nH]c3ccccc23)-c2ccccc2N1` [PAULLONE], the GI50 with HCT-15 is 30.9 µM; with SK-MEL-2, 43.3 µM (inactive); with RPMI-8226 it was 20.2 µM (inactive); with NCI-H522 it was 17.3 µM (inactive); in the experiment on OVCAR-3, 23.1 µM (inactive); in the experiment with Malme-3M it was 61.1 µM (inactive). Also, the GI50 in the experiment on M14 is 42.5 µM (inactive); in the experiment on UACC-257, 59.2 µM (inactive); in the experiment on HOP-62, 33.7 µM (inactive); with SK-MEL-5 it was 22.8 µM (inactive); in the experiment on LOX IMVI it was 16.5 µM (inactive); in the experiment on HL-60 it was 15.4 µM (inactive). In addition, the GI50 with CCRF-CEM is 22.2 µM (inactive); in the experiment with 786-0, 75.3 µM (inactive); with SF-539, 18.3 µM (inactive); with SF-295, 37.8 µM (inactive); with IGROV-1, 27.2 µM (inactive).
